# According to paper PMC5793121 (Toxins, 2018):
# Entries after “also recorded” stand apart in the source; their conditions may differ. No end group written: not given here.
# Tests used:
# human α7 nAChR = details: cited from earlier work
# [1] = tested on: human muscle-type nAChR adult form α1β1εδ; details: Xenopus oocytes; cited from earlier work
# male ICR mice [2] = assay: Forelimb grip strength test (muscle relaxant effect) after intramuscular administration; format: in vivo, mouse; details: for effect on forelimb muscular strength: vs saline control
# Procedure: 40 male ICR mice were divided equally into four groups: one control and three experimental groups. Animals of the control and experimental groups were treated with normal saline and with Az at doses of 0.03, 0.1 and 0.3 mg/kg, respectively. In addition 6 mice were treated with Az at dose of 0.01 mg/kg. The corresponding solutions were injected into the triceps muscles of the mouse forelimbs at a volume of 0.5 mL/kg per each limb. For all animals their basic forelimb grip strength was recorded before the substance administration with a 1027 grip strength meter (Columbus Instruments, Columbus, OH, USA). Further, their grip strength was measured 5, 10, 15, 20, 30, 60, 90 min after the Az (or normal saline) im administration.
# Rocuronium was administered intramuscularly as described for the measurement of acute toxicity (Section 5.4.1). Muscle strength was assessed prior to administration of the substance and then 1, 2, 3, 4, 5 min after administration.
# 5-HT3 receptors = details: concentration up to 10 μM; cited from earlier work
# Sprague Dawley rats = format: in vivo, rat; design: number of platelets / increase of platelet count from control: unit not given here
# Procedure: A repeated dose 14-day intramuscular toxicity study was conducted on 36 SD male and 36 SD female adult rats. They were divided into 3 groups. The first control group was given normal saline, the second and the third experimental groups received Az at doses of 0.1 mg/kg and 0.5 mg/kg, respectively, daily for 14 days. The substances were injected into the quadriceps muscle of the thigh. Every day the animals were examined and any clinical signs of intoxication, body weight and food intake were recorded. The one half of the animals were euthanized on the 15th day of the study, the second half—after a 2-week cancellation period on the 29th day of the study. All animals were autopsied and their organs were inspected for any pathological signs, weighed and histologically examined. The ratio of organ-to-body weight was calculated for several organs: brain, heart, liver, spleen, thymus, kidneys, lungs, testicles and ovaries. The histological analysis was carried out for a number of organs: kidney, adrenal glands, testis, ovary, spleen, thymus, brain, heart, lung, liver, lymph node (mesenteric and mandibular), stomach, skin and muscle from the site of the administration.
# A biochemical analysis of blood serum parameters was performed. A level of aspartate aminotransferase, alanine aminotransferase, glutamate dehydrogenase, alkaline phosphatase, gamma-glutamyl transferase, urea nitrogen, creatinine, total bilirubin, total protein, albumin, globulin, phosphorus, calcium, total cholesterol, triglycerides, albumin/globulin ratio was estimated. The analysis was performed using Randox GB reagent kits for each tested parameter and the automatic biochemical analyzer Sapphire-400 (Tokyo Boeki Ltd., Toyko, Japan).
# A hematological analysis of animal blood included the evaluation of red and white blood cell number, a hemoglobin level, hematocrit, red cell distribution width, mean corpuscular volume (MCV), mean corpuscular hemoglobin (MCH), mean corpuscular hemoglobin concentration (MCHC), platelets number, a mean platelet volume, a mean platelet component and a cell number of neutrophils, eosinophils, basophils, lymphocytes, monocytes, large unstained cells, reticulocytes. The analysis was performed using a hematological analyzer Mythic 18 Vet (C2 D[…].A., Montpellier, France).
# [3] = tested on: hprt gene of CHO-k1 cells
# male ICR mice [4] = format: in vivo, mouse; details: 7-day im 0.15 and 0.5 mg/kg
# Procedure: (§1) For carrying out these experiments 90 male ICR mice were used, they were divided equally into three groups (30 animals per group) for each study and in these groups they were subdivided into subgroups of 10 mice each and treated as follows: mice of the first subgroup were injected with normal saline im, the second subgroup animals were treated with Az (0.15 mg/kg im) and the animals of the third subgroup were treated with Az (0.50 mg/kg im). The drugs were injected into the quadriceps muscle of the thigh (musculus quadriceps femoris) daily for seven days (1 mL/kg).
# On the last 7th day of the Az administration, the mice of the second group (30 animals) were immunized intraperitoneally with a 1:1 mixture of 200 μL of bovine serum albumin (BSA, 0.5 mg/mL) with a complete Freund’s adjuvant. 10 days after the 1st immunization, the mice received the second 200 μL ip injection of the antigen (BSA, 0.5 mg/mL) in an incomplete Freund’s adjuvant (1:1 ratio).
# [5] = tested on: peritoneal macrophages of male ICR mice; format: in vivo, mouse; details: 7-day im 0.15 and 0.5 mg/kg
# Procedure: as §1
# On the next day after the seven-day course of the Az administration, the mice of the third group (30 animals) were injected intraperitoneally with 2 mL of ink particles suspension. After 10 min the mice were euthanized (CO2 inhalation) with a subsequent isolation of the peritoneal exudate from their abdominal cavity. In the exudate (1 μL) the total number of peritoneal macrophages and the number of the ink particle-containing (phagocytic) cells among them were counted using a Gorjaev’s chamber.
# [6] = tested on: human muscle-type nAChR fetal form α1β1γδ; details: Xenopus oocytes; cited from earlier work
# [7] = intramuscular injection to mice (abstract)
substance,measurement,setting,value
"DNWWPKPPHQGPRPPRPRPKP-NH2 [Az, azemiopsin]",IC50,human α7 nAChR,22 ± 2 µM
same,IC50,[1],0.44 ± 0.1 µM
same,decrease of grip strength,male ICR mice [2]; 0.1 mg/kg im,37%
same,average effective dose at the maximum response point,"male ICR mice [2]; 10 min after im injection, male ICR mice",0.09 mg/kg
same,effect on forelimb muscular strength,"male ICR mice [2]; Az 0.01 mg/kg im, n = 6",No significant differences; also recorded: not effective
same,effect on forelimb muscular strength,"male ICR mice [2]; Az 0.03, 0.1 and 0.3 mg/kg im, n = 10",significant decrease
same,time of maximal muscle relaxant effect after administration,"male ICR mice [2]; all doses studied, im, preserved until the 30th minute",10 min
same,duration of muscle relaxant effect,"male ICR mice [2]; depending on the dose, im",25 to 55 min
same,longest period of action,"male ICR mice [2]; dose 0.3 mg/kg im, from the 5th to the 60th minute",55 min
same,average effective dose (muscle relaxant effect),male ICR mice [2]; [7],0.09 mg/kg
same,initial effective dose (muscle relaxant effect),male ICR mice [2]; [7],0.03 mg/kg
same,initial effective dose (muscle relaxant effect),"male ICR mice [2]; single im injection in forelimb muscles, male ICR mice",0.03 mg/kg
same,activity against 5-HT3 receptors,5-HT3 receptors,no activity
same,changes in the hemogram relative to control,Sprague Dawley rats; 0.1 mg/kg im 14 days,did not lead to any changes
same,increase in mean body weight and food intake vs control,Sprague Dawley rats; 0.1 and 0.5 mg/kg im 14 days,did not differ significantly
same,histological analysis of organs and tissues,"Sprague Dawley rats; 0.1 and 0.5 mg/kg im 14 days, rats",No pathological changes
same,lowering of cholesterol level from control,"Sprague Dawley rats; female rats, 0.1 mg/kg",0.73 mmol/L
same,level of calcium in blood serum,"Sprague Dawley rats; female rats, 0.1 mg/kg, end of 28-day experiment, n = 6, control 3.25 ± 0.09",3090 ± 60 µM
same,level of cholesterol in blood serum,"Sprague Dawley rats; female rats, 0.1 mg/kg, end of 28-day experiment, n = 6, control 3.55 ± 0.39",2820 ± 360 µM
same,decrease of triglyceride level from control,Sprague Dawley rats; male rats receiving Az,0.28 mmol/L
same,difference of relative heart mass from control,Sprague Dawley rats; male rats receiving Az,0.076%
same,increase of platelet count from control,Sprague Dawley rats; male rats receiving Az,81
same,number of platelets,"Sprague Dawley rats; male rats, 0.5 mg/kg im 14 days, n = 6, control 729 ± 22",810 ± 39
same,mean level of triglycerides in blood serum,"Sprague Dawley rats; male rats, 0.5 mg/kg, end of 28-day experiment, n = 6, control 1.25",970 µM
same,mean relative heart weight,"Sprague Dawley rats; male rats, 0.5 mg/kg, two weeks after administration, n = 6, control 0.428 ± 0.086",0.352 ± 0.033%
same,frequency of mutations in the hprt gene,"[3]; Az 2.8 to 2000 μg/mL, 4 h, with or without S9, spontaneous 25.2 ± 1.6",23.5–30.2 × 10^−6
same,mutagenic capacity,"[3]; Az up to 2000 μg/mL, CHO-k1 cells",did not demonstrate any mutagenic capacity
same,immune response to BSA (IgG titers in blood serum),male ICR mice [4],did not demonstrate any significant difference
same,phagocytic activity (engulfing ink particles) of peritoneal macrophages,[5],did not significantly change
same,IC50,[6],1.56 ± 0.37 µM
